For 19 molecules, IC50 results are on record in ChEMBL document CHEMBL4312022, “Design, synthesis, and biological evaluation of ligustrazine - betulin amino-acid/dipeptide derivatives as anti-tumor agents” (Eur J Med Chem, 2020).

Molecules are shown by their SMILES.

In assay [1] the test system is HeLa. The assay can be described thus: Antiproliferative activity against human HeLa cells assessed as reduction in cell viability after 72 hrs by MTT assay. Type of assay: functional, cell-based. In general terms: Tetrazolium assays rely on reduction of a dye to a coloured formazan, in cell work by metabolically active cells.
The subject of assay [2] is HepG2. Kind of assay: Antiproliferative activity against human HepG2 cells assessed as reduction in cell viability after 72 hrs by MTT assay. Type of assay: functional, cell-based. The following applies: HepG2, 72 h.
In assay [3] the test system is BGC-823. Kind of assay: Antiproliferative activity against human BGC823 cells assessed as reduction in cell viability after 72 hrs by MTT assay. Type of assay: functional, cell-based. The following applies: BGC-823, 72 h.
Assay [4] deals with HT-29. Kind of assay: Antiproliferative activity against human HT-29 cells assessed as reduction in cell viability after 72 hrs by MTT assay. It is filed as functional, cell-based. The settings on record: HT-29, 72 h.
Assay [5] has as its system MDCK. The assay can be described thus: Cytotoxicity against MDCK cells assessed as reduction in cell viability after 72 hrs by MTT assay. It is filed as cell-based. The following applies: Canis lupus familiaris.

Turning to `C=C(C)[C@@H]1CC[C@]2(COC(=O)c3nc(C)c(C)nc3C)CC[C@]3(C)[C@H](CC[C@@H]4[C@@]5(C)CC[C@H](OC(=O)[C@@H](N)Cc6ccccc6)C(C)(C)[C@@H]5CC[C@]43C)[C@@H]12`, the IC50 in assay [1], in assay [2], in assay [3], in assay [4] and in assay [5] was over 20 µM each time.

Consider `C=C(C)[C@@H]1CC[C@]2(COC(=O)c3nc(C)c(C)nc3C)CC[C@]3(C)[C@H](CC[C@@H]4[C@@]5(C)CC[C@H](OC(=O)CNC(=O)CNC(C)=O)C(C)(C)[C@@H]5CC[C@]43C)[C@@H]12`, for which the IC50 in assay [1] is over 20 µM; in assay [2], over 20 µM; in assay [3], 7.85 µM; in assay [4] it was 11.2 µM; in assay [5], 14.5 µM.

As to `C=C(C)[C@@H]1CC[C@]2(COC(=O)c3nc(C)c(C)nc3C)CC[C@]3(C)[C@H](CC[C@@H]4[C@@]5(C)CC[C@H](OC(=O)[C@@H]6CCCN6C(=O)[C@@H]6CCCN6C(C)=O)C(C)(C)[C@@H]5CC[C@]43C)[C@@H]12`, the IC50 in assay [1] is 11.1 µM; in assay [2], over 20 µM; in assay [3], over 20 µM; in assay [4], over 20 µM; in assay [5], over 20 µM.

With `C=C(C)[C@@H]1CC[C@]2(COC(=O)c3nc(C)c(C)nc3C)CC[C@]3(C)[C@H](CC[C@@H]4[C@@]5(C)CC[C@H](OC(=O)[C@@H]6CCCN6C(=O)CCNC(C)=O)C(C)(C)[C@@H]5CC[C@]43C)[C@@H]12`, the IC50 is 10.4 µM in assay [1]; over 20 µM in assay [2]; over 20 µM in assay [3]; over 20 µM in assay [4]; over 20 µM in assay [5].

`C=C(C)[C@@H]1CC[C@]2(CO)CC[C@]3(C)[C@H](CC[C@@H]4[C@@]5(C)CC[C@H](O)C(C)(C)[C@@H]5CC[C@]43C)[C@@H]12` [BETULIN]: the IC50 was 12.2 µM in assay [1]; over 20 µM in assay [2]; over 20 µM in assay [3]; over 20 µM in assay [4]; over 20 µM in assay [5].

For the molecule `C=C(C)[C@@H]1CC[C@]2(COC(=O)c3nc(C)c(C)nc3C)CC[C@]3(C)[C@H](CC[C@@H]4[C@@]5(C)CC[C@H](OC(=O)CNC)C(C)(C)[C@@H]5CC[C@]43C)[C@@H]12`, the IC50 in assay [1] stood at 7.88 µM; in assay [2], 5.93 µM; in assay [3], 8.23 µM; in assay [4], 7.92 µM; in assay [5], 14.6 µM.

Consider `C=C(C)[C@@H]1CC[C@]2(COC(=O)c3nc(C)c(C)nc3C)CC[C@]3(C)[C@H](CC[C@@H]4[C@@]5(C)CC[C@H](OC(=O)CNC(=O)[C@@H]6CCCN6C(C)=O)C(C)(C)[C@@H]5CC[C@]43C)[C@@H]12`, for which the half-inhibitory concentration (IC50) in assay [1] was 10.1 µM; in assay [2], over 20 µM; in assay [3] it was 8.15 µM; in assay [4], 12.3 µM; in assay [5], 19.8 µM.

On to `C=C(C)[C@@H]1CC[C@]2(COC(=O)c3nc(C)c(C)nc3C)CC[C@]3(C)[C@H](CC[C@@H]4[C@@]5(C)CC[C@H](OC(=O)[C@@H]6CCC(=O)N6)C(C)(C)[C@@H]5CC[C@]43C)[C@@H]12`, for which the concentration for half-maximal inhibition (IC50) turned out to be 19.4 µM in assay [1]; 16.5 µM in assay [2]; 8.62 µM in assay [3]; 15.3 µM in assay [4]; 16.7 µM in assay [5].

Regarding `C=C(C)[C@@H]1CC[C@]2(COC(=O)c3nc(C)c(C)nc3C)CC[C@]3(C)[C@H](CC[C@@H]4[C@@]5(C)CC[C@H](OC(=O)CN(C)C(=O)CNC(C)=O)C(C)(C)[C@@H]5CC[C@]43C)[C@@H]12`, the IC50 was 7.96 µM in assay [1]; over 20 µM in assay [2]; 10.3 µM in assay [3]; over 20 µM in assay [4]; over 20 µM in assay [5].

Consider `C=C(C)[C@@H]1CC[C@]2(COC(=O)c3nc(C)c(C)nc3C)CC[C@]3(C)[C@H](CC[C@@H]4[C@@]5(C)CC[C@H](OC(=O)CNC(=O)CCNC(C)=O)C(C)(C)[C@@H]5CC[C@]43C)[C@@H]12`, for which the half-inhibitory concentration (IC50) in assay [1] was 6.72 µM; in assay [2], over 20 µM; in assay [3] it was 7.62 µM; in assay [4], over 20 µM; in assay [5], 15.8 µM.

As to `C=C(C)[C@@H]1CC[C@]2(COC(=O)c3nc(C)c(C)nc3C)CC[C@]3(C)[C@H](CC[C@@H]4[C@@]5(C)CC[C@H](OC(=O)[C@@H]6CCCN6)C(C)(C)[C@@H]5CC[C@]43C)[C@@H]12`, the IC50 worked out at 17.2 µM in assay [1]; 19.6 µM in assay [2]; 10.4 µM in assay [3]; 15 µM in assay [4]; 17.6 µM in assay [5].

As for `C=C(C)[C@@H]1CC[C@]2(COC(=O)c3nc(C)c(C)nc3C)CC[C@]3(C)[C@H](CC[C@@H]4[C@@]5(C)CC[C@H](OC(=O)CN(C)C(=O)CCNC(C)=O)C(C)(C)[C@@H]5CC[C@]43C)[C@@H]12`, the IC50 in assay [1] was determined as 4.13 µM; in assay [2], 11 µM; in assay [3], 6.94 µM; in assay [4] it was 12.5 µM; in assay [5], 18.6 µM.

For the molecule `C=C(C)[C@@H]1CC[C@]2(COC(=O)c3nc(C)c(C)nc3C)CC[C@]3(C)[C@H](CC[C@@H]4[C@@]5(C)CC[C@H](O)C(C)(C)[C@@H]5CC[C@]43C)[C@@H]12`, the IC50 is 18.5 µM in assay [1]; 13.6 µM in assay [2]; 15 µM in assay [3]; 16.3 µM in assay [4]; over 20 µM in assay [5].

With `C=C(C)[C@@H]1CC[C@]2(COC(=O)c3nc(C)c(C)nc3C)CC[C@]3(C)[C@H](CC[C@@H]4[C@@]5(C)CC[C@H](OC(=O)[C@@H](N)C(C)C)C(C)(C)[C@@H]5CC[C@]43C)[C@@H]12`, the half-inhibitory concentration (IC50) in assay [1], in assay [2], in assay [3], in assay [4] and in assay [5] was over 20 µM throughout.

As to `C=C(C)[C@@H]1CC[C@]2(COC(=O)c3nc(C)c(C)nc3C)CC[C@]3(C)[C@H](CC[C@@H]4[C@@]5(C)CC[C@H](OC(=O)[C@@H](N)[C@@H](C)CC)C(C)(C)[C@@H]5CC[C@]43C)[C@@H]12`, the IC50 in assay [1] was over 20 µM; in assay [2], over 20 µM; in assay [3], over 20 µM; in assay [4] it was 16.6 µM; in assay [5], over 20 µM.

As to `C=C(C)[C@@H]1CC[C@]2(COC(=O)c3nc(C)c(C)nc3C)CC[C@]3(C)[C@H](CC[C@@H]4[C@@]5(C)CC[C@H](OC(=O)[C@@H]6CCCN6C(=O)CNC(C)=O)C(C)(C)[C@@H]5CC[C@]43C)[C@@H]12`, the IC50 in assay [1] was 17.9 µM; in assay [2], 18.4 µM; in assay [3] it was 18.9 µM; in assay [4], 14.7 µM; in assay [5] it was 18.9 µM.

On to `C=C(C)[C@@H]1CC[C@]2(COC(=O)c3nc(C)c(C)nc3C)CC[C@]3(C)[C@H](CC[C@@H]4[C@@]5(C)CC[C@H](OC(=O)[C@H](C)N)C(C)(C)[C@@H]5CC[C@]43C)[C@@H]12`, for which the IC50 is 9.22 µM in assay [1]; 10.1 µM in assay [2]; 7.83 µM in assay [3]; 9.29 µM in assay [4]; 18.5 µM in assay [5].

In the case of `C=C(C)[C@@H]1CC[C@]2(COC(=O)c3nc(C)c(C)nc3C)CC[C@]3(C)[C@H](CC[C@@H]4[C@@]5(C)CC[C@H](OC(=O)[C@@H](N)CC(C)C)C(C)(C)[C@@H]5CC[C@]43C)[C@@H]12`, the 50% inhibitory concentration (IC50) in assay [1], in assay [2], in assay [3], in assay [4] and in assay [5] was over 20 µM each time.

For the molecule `C=C(C)[C@@H]1CC[C@]2(COC(=O)c3nc(C)c(C)nc3C)CC[C@]3(C)[C@H](CC[C@@H]4[C@@]5(C)CC[C@H](OC(=O)CN(C)C(=O)[C@@H]6CCCN6C(C)=O)C(C)(C)[C@@H]5CC[C@]43C)[C@@H]12`, the IC50 in assay [1] was 10.5 µM; in assay [2], over 20 µM; in assay [3], 7.93 µM; in assay [4] it was 9.71 µM; in assay [5] it was over 20 µM.

Usually IC50 stands for the concentration that gives 50% inhibition.
